Laboratory results published in ChEMBL document CHEMBL1165932, “Inhibition of Mycobacterium tuberculosis tyrosine phosphatase PtpA by synthetic chalcones: kinetics, molecular modeling, toxicity and effect on growth” (Bioorg Med Chem, 2010).

What was measured:
[1] = system: Mycobacterium tuberculosis; assay: Antibacterial activity against Mycobacterium bovis BCG infected in human THP1 cells assessed as viral infection at 20 uM after 48 hrs relative to control; type: functional, variant bovis BCG, THP-1
[2] = system: Mycobacterium tuberculosis; assay: Antibacterial activity against Mycobacterium bovis BCG infected in human THP1 cells assessed as viral infection at 10 uM after 24 hrs relative to control; type: functional, variant bovis BCG, THP-1

| Compound | Activity [1] [%] | Activity [2] [%] |
| --- | --- | --- |
| COc1cc(C(=O)/C=C/c2ccc3ccccc3c2)ccc1O | 8.5 | 72.9 |
| COc1ccc(OC)c(C(=O)/C=C/c2cccc3ccccc23)c1 | 46.3 | 108.6 |
| O=C(/C=C/c1cccc2ccccc12)c1ccccc1O | 71.3 | 180.8 |
| COc1ccc(C(=O)/C=C/c2ccc3ccccc3c2)cc1OC | 32.9 | 63.8 |
| COc1ccc(OC)c(C(=O)/C=C/c2ccc3ccccc3c2)c1 | 234.9 | 117.7 |
